{
  "source": "patent US11629141B2",
  "about": "“Proteasome inhibitors and uses thereof” (CORNELL UNIVERSITY, priority 2015, dated 2023)",
  "key": {"[1]": {"target": "T1, human immunoproteasome β5i (Homo sapiens, UniProt P28062)", "T1 construct": "purchased Boston Biochem Inc", "experiment": "IC50 against chymotryptic β5i activity of human immunoproteasome (96-well plate, Ac-ANW-AMC)", "type": "biochemical", "settings": "β5i; substrate Ac-ANW-AMC; read-out: IC50 Hu i-20S (Ac-ANW-AMC)", "experimental": "A 96-well-plate assays were used to determine the IC50s against the chymotryptic β5 activities of the proteasomes. Both human constitutive proteasome and immunoproteasome were purchased from Boston Biochem Inc. 1 μL of 100× compound in DMSO at designated concentrations were spotted at the bottom of the wells. DMSO was used as a control. […] The hydrolysis of the substrate over time in each well was monitored at excitation 360 nm, emission 460 nm for 90 minutes. IC50s were estimated by fitting the velocities of hydrolysis against compound concentrations using PRISM. […] SDS (0.02%) was used as activator, and 0.01% BSA was used in the reaction buffer."}, "Plasmodium falciparum": {"system": "Plasmodium falciparum", "experiment": "Growth of Plasmodium falciparum in red blood cells (SYBR Green, 72 hours)", "type": "cell-based", "settings": "Erythrocyte, P.f. 3D7, growth in red blood cells, read-out: EC50 (nM) (P.f.)", "experimental": "Continuous in vitro cultures of Plasmodium falciparum: were maintained in human red blood cells (RBC) diluted to a hematocrit of 5% in RPMI 1640 medium with HEPES and Hypoxanthine and completed with 0.5% Albumax II (Invitrogen), 0.25% sodium bicarbonate, and 0.1 mg/ml gentamicin. Parasites were incubated at 37° C. in a gas mixture of 5% oxygen, 5% carbon dioxide, and 90% nitrogen.\nParasite sensitivity to novel compounds were determined using a SYBR Green (Invitrogen S1046) drug assay protocol. P. falciparum of various clinic stains were cultured with compounds at concentrations in a series of dilution in a clear, sterile 96-well plate for 72 hours. Subsequently, 150 μl of the cultures were transferred to a black 96-well plate and placed in the freezer for red blood cell lysis. The plates were thawed and suspended in a Sybr Green Lysis buffer. GraphPad Prism was used to analyze the raw data collected […]. Drug concentrations were converted to logarithms, normalized, and then curve fitted by non-linear regression to obtain EC50 values.\nPlasmodium falciparum: parasites were cultured in human red cells. Drug assays were run in 96 well plates at a total volume of 200 μl. Assays were set up at a starting parasitemia (percent of infected red cells) of 0.5%. Test compounds were plated at concentrations of 2778 nM to 0.4 nM. The test plates were grown under standard low oxygen conditions at 37° C. for 72 hours. At that time the plates were prepared for growth determination, first the plates were frozen and thawed to lyse the red blood cells, 150 μl of the lysed thawed culture was transferred to a black 96 well plate, and mixed in a lysis buffer with SYBR green DNA dye. The fluorescence of each well was recorded in a plate reader with excitation wavelength 490 nm and emission wavelength 530 nm and normalized relative to DMSO control. The EC50s were determined using Prism software."}, "[2]": {"target": "T2, human constitutive proteasome β5c (Homo sapiens, UniProt P28074)", "T2 construct": "purchased Boston Biochem Inc", "experiment": "IC50 against chymotryptic β5c activity of human constitutive proteasome (96-well plate, Suc-LLVY-AMC)", "type": "biochemical", "settings": "β5c; substrate Suc-LLVY-AMC; read-out: IC50 Hu c-20S (Suc-LLVY-AMC)", "experimental": "A 96-well-plate assays were used to determine the IC50s against the chymotryptic β5 activities of the proteasomes. Both human constitutive proteasome and immunoproteasome were purchased from Boston Biochem Inc. 1 μL of 100× compound in DMSO at designated concentrations were spotted at the bottom of the wells. DMSO was used as a control. Final concentrations of the inhibitors were from 100 μM to 0.098 μM. The hydrolysis of the substrate over time in each well was monitored at excitation 360 nm, emission 460 nm for 90 minutes. IC50s were estimated by fitting the velocities of hydrolysis against compound concentrations using PRISM. […] Suc-LLVY-AMC was used for βc at final concentration of 25 μM, and Ac-ANW-AMC for b5i at final concentration of 15 μM. SDS (0.02%) was used as activator, and 0.01% BSA was used in the reaction buffer.\nThe foregoing features of these AsnEDA encouraged a further round of SAR studies (Table 5) based on varying the carboxylic acid at the ethylenediamine, the N-cap at the Asn, and the side chain of the Asn, based on PKS21004. All compounds listed in the Table 5 were synthesized as described in Examples 6-77. All final compounds were confirmed by NMR and HRMS. IC50s of all compounds against β5i and β5c (Table 5), β1i, β2i, β1c and β2c were determined following a reported method (Lin et al., “N,C-Capped Dipeptides With Selectivity for Mycobacterial Proteasome Over Human Proteasomes: Role of S3 and S1Binding Pockets,” J Am Chem Soc. 135:9968-9971 (2013), which is hereby incorporated by reference in its entirety). […] The [1,1′-biphenyl]-3-carboxamide of PKS21004 was then modified with the following substituents: 4′-fluoro (PKS21026), 4′-cyano (PKS21028), 4-fluoro (PKS21196), 4,3′-difluoro (PKS21195) and 4,2′-difluoro (PKS21187)."}, "Pf20S β5": {"system": "Pf20S β5", "experiment": "Labeling of Pf20S active subunits by activity probe MV151 in Pf lysates", "type": "biochemical, P. falciparum", "settings": "1 hour with inhibitor, then MV151 (2 μM) 1 hour", "experimental": "Pf lysates were incubated with inhibitors at indicated concentrations for 1 hour prior to incubation with MV151 (2 μM) for an additional hour. SDS pages were scanned on a Typhoon fluorescent scanner. […] BTZ was used as a positive control."}, "Pf Gametocytes": {"system": "Pf Gametocytes", "experiment": "Gametocyte killing assay (DilC1(5), flow cytometry)", "type": "cell-based", "settings": "Plasmodium falciparum; NF54 peg4-tdTomato, 72 hour incubation; read-out: EC50 against Pf Gametocytes", "experimental": "Asexual replication of NF54 peg4-tdTomato parasites was eliminated by treating with 50 mM GlcNAc and 20 U/mL Heparin for 3 days. NF54 peg4-tdTomato parasites then were maintained using standard culture techniques. Gametocytes were induced synchronously according to Fivelman et al., “Improved Synchronous Production of Plasmodium Falciparum Gametocytes in Vitro,” Mol Biochemo Parasitol. 154(1):119-123 (2007), which is hereby incorporated by reference in its entirety. Asexual replication was eliminated by treating with 50 mM GlcNAc for 3 days. Gametocyte killing assays were setup on days 5 and 10 in triplicate 96-well format at 1% hematocrit and 2% gametocytemia. Compounds were setup in triplicate and serially diluted 3-fold. In addition, 6 solvent controls (DMSO) were distributed evenly across the plate. Following a 72 hour incubation, Stage III-IV (Day 5-7) and Stage IV-V (Day 10-12), (start the incubation in the afternoon on Day 5 and Day 10, take out plate for assay on Day8 and Day13 afternoon) cultures were stained with 16 nM Hoechst 33342 and 50 nM DilC1(5) for 30 min at 37 C. Using a Cytek DxP12 flow cytometer, gametocytemia was determined by gating for DNA+, hemozoin-high cells and gametocyte viability was inferred based on mitochondrial membrane potential-dependent accumulation of DilC1(5) for 2000-3000 gametocytes (Tanaka et al., “Potent Plasmodium Falciparum Gametocytocidal Activity of Diaminonaphthoquinones, Lead Antimalarial Chemotypes Identified in an Antimalarial Compound Screen,” Antimicrob. Agents Chemother. 2015, 59:1389 (2015), which is hereby incorporated by reference in its entirety). Mean DilC1(5) signal was normalized to solvent control and the overall minimum and used to calculate the EC50 (FIG. 3 and Table 4)."}},
  "note": "Entries after “also recorded” stand apart in the source; their conditions may differ.",
  "data": [
    {"compound": "Cc1ccc(S(=O)(=O)N[C@@H](CC(=O)NC(C)(C)C)C(=O)NCCNC(=O)c2cc(-c3ccccc3)ccn2)cc1", "note": "[PKS21229]", "values": [
      {"measurement": "IC50", "setting": "[1]", "value": 19, "unit": "nM"},
      {"measurement": "EC50", "setting": "Plasmodium falciparum", "value": 1, "unit": "nM"},
      {"measurement": "IC50", "setting": "[2]", "value": 510, "unit": "nM"}
    ]},
    {"compound": "Cc1cc(C(=O)N[C@@H](CC(=O)NC(C)(C)C)C(=O)NCCNC(=O)c2cccc(-c3cc[nH]n3)c2)no1", "note": "[PKS21287]", "values": [
      {"measurement": "IC50", "setting": "[1]", "value": 1150, "unit": "nM"},
      {"measurement": "labeling of Pf20S β5 by MV151", "setting": "Pf20S β5", "value": "block labeling; also recorded: dose-dependently inhibited the labeling"},
      {"measurement": "EC50", "setting": "Pf Gametocytes", "value": 206, "unit": "nM"},
      {"measurement": "EC50", "setting": "Plasmodium falciparum", "value": 34, "unit": "nM"},
      {"measurement": "IC50", "setting": "[2]", "value": 21100, "unit": "nM"}
    ]},
    {"compound": "Cc1ccc(S(=O)(=O)N[C@@H](CC(=O)NC(C)(C)C)C(=O)NCCNC(=O)c2ccccc2F)cc1", "note": "[PKS21291]", "values": [
      {"measurement": "IC50", "setting": "[1]", "value": 55, "unit": "nM"},
      {"measurement": "EC50", "setting": "Plasmodium falciparum", "value": 11, "unit": "nM"},
      {"measurement": "IC50", "setting": "[2]", "value": 520, "unit": "nM"}
    ]},
    {"compound": "Cc1ccc(S(=O)(=O)N[C@@H](CC(=O)NC(C)(C)C)C(=O)NCCNC(=O)c2ccccc2O)cc1", "note": "[PKS21292]", "values": [
      {"measurement": "IC50", "setting": "[1]", "value": 15, "unit": "nM"},
      {"measurement": "EC50", "setting": "Plasmodium falciparum", "value": 2.9, "unit": "nM"},
      {"measurement": "IC50", "setting": "[2]", "value": 187, "unit": "nM"}
    ]}
  ]
}
